# From the supplement of paper PMC11061612
# How the values were obtained:
# AZD7648 = compound: Cc1cc2ncnn2cc1Nc1ncc2c(n1)n(C1CCOCC1)c(=O)n2C [AZD7648]; details: max 10 µM
# How it was run: (§1)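 Cancer cell lines were plated in 1536-well plates in 7.5 μl of DMEM/F12 or RPMI with 10% FBS and kept 24 hours at 37°C and 5% CO2 before 72 hours of dosing, with final DMSO typically 0.2%. CellTiter-Glo 2.0 luminescence measured viability, scaled between blank-well and DMSO-well means. Dose responses were fitted to a two-parameter logistic curve with a non-linear mixed effects model. This fit gives the single-agent IC50.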
# AZD1390 = compound: CC(C)n1c(=O)n(C)c2cnc3cc(F)c(-c4ccc(OCCCN5CCCCC5)nc4)cc3c21 [AZD1390]; details: max 0.3 µM
# How it was run: as §1
# Dasatinib = compound: CC1=C(C(=CC=C1)Cl)NC(=O)C2=CN=C(S2)NC3=CC(=NC(=N3)C)N4CCN(CC4)CCO [Dasatinib]; details: max 2 µM
# How it was run: as §1
# AZD5153 = compound: COc1nnc2ccc(N3CCC(c4ccc(OCCN5CCN(C)C(=O)[C@H]5C)cc4)CC3)nn12 [AZD5153]; details: max 1 µM
# How it was run: as §1
# Prexasertib = compound: COc1cccc(OCCCN)c1-c1cc(Nc2cnc(C#N)cn2)n[nH]1 [Prexasertib]; details: max 1 µM
# How it was run: as §1
# AZD0156 = compound: CN(C)CCCOc1ccc(-c2ccc3ncc4c(c3c2)n(C2CCOCC2)c(=O)n4C)cn1 [AZD0156]
# How it was run: as §1
# Gefitinib = compound: COc1cc2ncnc(Nc3ccc(F)c(Cl)c3)c2cc1OCCCN1CCOCC1 [Gefitinib]; details: max 10 µM
# How it was run: as §1
# AZD2811 = compound: CCN(CCO)CCCOc1ccc2c(Nc3cc(CC(=O)Nc4cccc(F)c4)[nH]n3)ncnc2c1 [AZD2811]; details: max 1 µM
# How it was run: as §1
# Selumetinib = compound: Cn1cnc2c(F)c(Nc3ccc(Br)cc3Cl)c(C(=O)NOCCO)cc21 [Selumetinib]; details: max 10 µM
# How it was run: as §1
# Lapatinib = compound: CS(=O)(=O)CCNCc1ccc(-c2ccc3ncnc(Nc4ccc(OCc5cccc(F)c5)c(Cl)c4)c3c2)o1 [Lapatinib]; details: max 10 µM
# How it was run: as §1
# Trametinib = compound: CC(=O)Nc1cccc(-n2c(=O)n(C3CC3)c(=O)c3c(Nc4ccc(I)cc4F)n(C)c(=O)c(C)c32)c1 [Trametinib]; details: max 1 µM
# How it was run: as §1
# AZD1775 = compound: C=CCn1c(=O)c2cnc(Nc3ccc(N4CCN(C)CC4)cc3)nc2n1-c1cccc(C(C)(C)O)n1 [AZD1775]
# How it was run: as §1
# Capivasertib = compound: C1CN(CCC1(C(=O)N[C@@H](CCO)C2=CC=C(C=C2)Cl)N)C3=NC=NC4=C3C=CN4 [Capivasertib]; details: max 10 µM
# How it was run: as §1
# AZD4320 = compound: CN(CC[C@H](CSC1=CC=CC=C1)NC2=C(C=C(C=C2)S(=O)(=O)NC(=O)C3=CC=C(C=C3)N4CCC(CC4)[C@H](C5=CC=CC=C5C6=CC=C(C=C6)Cl)O)S(=O)(=O)C(F)(F)F)CCO [AZD4320]; details: max 1 µM
# How it was run: as §1
# Doxorubicin = compound: COc1cccc2c1C(=O)c1c(O)c3c(c(O)c1C2=O)C[C@@](O)(C(=O)CO)C[C@@H]3O[C@H]1C[C@H](N)[C@H](O)[C@H](C)O1 [Doxorubicin]; details: max 1 µM
# How it was run: as §1
# Alisertib = compound: COc1cc(Nc2ncc3c(n2)-c2ccc(Cl)cc2C(c2c(F)cccc2OC)=NC3)ccc1C(=O)O [Alisertib]; details: max 10 µM
# How it was run: as §1
# Crizotinib = compound: C[C@@H](Oc1cc(-c2cnn(C3CCNCC3)c2)cnc1N)c1c(Cl)ccc(F)c1Cl [Crizotinib]; details: max 10 µM
# How it was run: as §1
# AZD8186 = compound: C[C@@H](Nc1cc(F)cc(F)c1)c1cc(C(=O)N(C)C)cc2c(=O)cc(N3CCOCC3)oc12 [AZD8186]
# How it was run: as §1
# Olaparib = compound: O=C(c1cc(Cc2n[nH]c(=O)c3ccccc23)ccc1F)N1CCN(C(=O)C2CC2)CC1 [Olaparib]; details: max 10 µM
# How it was run: as §1
# SN-38 = compound: CCc1c2c(nc3ccc(O)cc13)-c1cc3c(c(=O)n1C2)COC(=O)[C@]3(O)CC [SN-38]; details: max 0.3 µM
# How it was run: as §1
# SG3199 = compound: CC1=CN2[C@@H](C1)C=NC3=CC(=C(C=C3C2=O)OC)OCCCCCOC4=C(C=C5C(=C4)N=C[C@@H]6CC(=CN6C5=O)C)OC [SG3199]; details: max 0.001 µM
# How it was run: as §1
# AZD5991 = compound: Cc1c2c(nn1C)CSCc1cc(n(C)n1)CSc1cc(c3ccccc3c1)OCCCc1c(C(=O)O)n(C)c3c-2c(Cl)ccc13 [AZD5991]; details: max 1 µM
# How it was run: as §1
# Savolitinib = compound: C[C@@H](c1ccc2nccn2c1)n1nnc2ncc(-c3cnn(C)c3)nc21 [Savolitinib]; details: max 1 µM
# How it was run: as §1
# Palbociclib = compound: CC(=O)c1c(C)c2cnc(Nc3ccc(N4CCNCC4)cn3)nc2n(C2CCCC2)c1=O [Palbociclib]; details: max 10 µM
# How it was run: as §1
# Venetoclax = compound: CC1(C)CCC(CN2CCN(c3ccc(C(=O)NS(=O)(=O)c4ccc(NCC5CCOCC5)c([N+](=O)[O-])c4)c(Oc4cnc5[nH]ccc5c4)c3)CC2)=C(c2ccc(Cl)cc2)C1 [Venetoclax]; details: max 1 µM
# How it was run: as §1
# Taselisib = compound: Cc1nc(-c2cn3c(n2)-c2ccc(-c4cnn(C(C)(C)C(N)=O)c4)cc2OCC3)n(C(C)C)n1 [Taselisib]; details: max 10 µM
# How it was run: as §1
# AZD6738 = compound: C[C@@H]1COCCN1C2=NC(=NC(=C2)C3(CC3)[S@](=N)(=O)C)C4=C5C=CNC5=NC=C4 [AZD6738]; details: max 10 µM
# How it was run: as §1
# 5-Fluorouracil = compound: O=c1[nH]cc(F)c(=O)[nH]1 [5-Fluorouracil]; details: max 20 µM
# How it was run: as §1
# Carboplatin = compound: C1CC(C1)(C(=O)[O-])C(=O)[O-].N.N.[Pt+2] [Carboplatin]; details: max 10 µM
# How it was run: as §1
# Gemcitabine = compound: Nc1ccn([C@@H]2O[C@H](CO)[C@@H](O)C2(F)F)c(=O)n1 [Gemcitabine]; details: max 0.3 µM
# How it was run: as §1
# AZD5363 = compound: C1CN(CCC1(C(=O)N[C@@H](CCO)C2=CC=C(C=C2)Cl)N)C3=NC=NC4=C3C=CN4 [AZD5363]; details: max 10 µM
# How it was run: as §1
# MK-2206 = compound: NC1(c2ccc(-c3nc4ccn5c(=O)[nH]nc5c4cc3-c3ccccc3)cc2)CCC1 [MK-2206]; details: max 10 µM
# How it was run: as §1
# Etoposide = compound: COc1cc([C@@H]2c3cc4c(cc3[C@@H](O[C@@H]3O[C@@H]5CO[C@@H](C)O[C@H]5[C@H](O)[C@H]3O)[C@H]3COC(=O)[C@H]23)OCO4)cc(OC)c1O [Etoposide]; details: max 10 µM
# How it was run: as §1
# SRA737 = compound: N#Cc1cnc(Nc2cc(NC[C@H]3CNCCO3)c(C(F)(F)F)cn2)cn1 [SRA737]; details: max 10 µM
# How it was run: as §1
# [1] = compound: O=C(Nc1ccc2[nH]nc(-c3ccncc3)c2c1)[C@@H]1CCN(CC(=O)N2CCN(c3ccc(-c4ncccn4)cc3)CC2)C1; details: max 5 µM
# How it was run: as §1
# Paclitaxel = compound: CC(=O)O[C@H]1C(=O)[C@@]2(C)[C@H]([C@H](OC(=O)c3ccccc3)[C@]3(O)C[C@H](OC(=O)[C@H](O)[C@@H](NC(=O)c4ccccc4)c4ccccc4)C(C)=C1C3(C)C)[C@]1(OC(C)=O)CO[C@@H]1C[C@@H]2O [Paclitaxel]; details: max 3 µM
# How it was run: as §1
Cell Line,"IC50, cell viability 72 h (AZD7648)","IC50, cell viability 72 h (AZD1390)","IC50, cell viability 72 h (Dasatinib)","IC50, cell viability 72 h (AZD5153)","IC50, cell viability 72 h (Prexasertib)","IC50, cell viability 72 h (AZD0156; max 3 µM)","IC50, cell viability 72 h (Gefitinib)","IC50, cell viability 72 h (AZD2811)","IC50, cell viability 72 h (Selumetinib)","IC50, cell viability 72 h (Lapatinib)","IC50, cell viability 72 h (Trametinib)","IC50, cell viability 72 h (AZD1775; max 3 µM)","IC50, cell viability 72 h (Capivasertib)","IC50, cell viability 72 h (AZD4320)","IC50, cell viability 72 h (Doxorubicin)","IC50, cell viability 72 h (Alisertib)","IC50, cell viability 72 h (Crizotinib)","IC50, cell viability 72 h (AZD8186; max 3 µM)","IC50, cell viability 72 h (Olaparib)","IC50, cell viability 72 h (SN-38)","IC50, cell viability 72 h (SG3199)","IC50, cell viability 72 h (AZD5991)","IC50, cell viability 72 h (Savolitinib)","IC50, cell viability 72 h (Palbociclib)","IC50, cell viability 72 h (Venetoclax)","IC50, cell viability 72 h (Taselisib)","IC50, cell viability 72 h (AZD6738)","IC50, cell viability 72 h (5-Fluorouracil)","IC50, cell viability 72 h (Carboplatin)","IC50, cell viability 72 h (Gemcitabine)","IC50, cell viability 72 h (AZD5363)","IC50, cell viability 72 h (AZD8186; max 10 µM)","IC50, cell viability 72 h (MK-2206)","IC50, cell viability 72 h (Etoposide)","IC50, cell viability 72 h (SRA737)","IC50, cell viability 72 h [1]","IC50, cell viability 72 h (Paclitaxel)","IC50, cell viability 72 h (AZD0156; max 1 µM)","IC50, cell viability 72 h (AZD1775; max 1 µM)"
HCT-15 (Colorectal Carcinoma),> 10 µM,> 0.3 µM,1.73 µM,0.227 µM,0.139 µM,> 3 µM,> 10 µM,> 1 µM,> 10 µM,> 10 µM,> 1 µM,0.544 µM,> 10 µM,> 1 µM,0.619 µM,4.21 µM,7.41 µM,> 3 µM,> 10 µM,0.0535 µM,> 0.001 µM,> 1 µM,> 1 µM,> 10 µM,> 1 µM,3.86 µM,4 µM,–,–,–,–,–,–,–,–,–,–,–,–
SK-PN-DW (Other Solid Carcinomas),> 10 µM,> 0.3 µM,> 2 µM,0.562 µM,0.00583 µM,> 3 µM,> 10 µM,0.191 µM,> 10 µM,> 10 µM,> 1 µM,1.59 µM,–,> 1 µM,0.199 µM,0.119 µM,4.41 µM,–,> 10 µM,0.00405 µM,> 0.001 µM,0.07 µM,> 1 µM,> 10 µM,0.757 µM,4.42 µM,0.558 µM,5.01 µM,> 10 µM,> 0.3 µM,4.78 µM,> 10 µM,> 10 µM,1.53 µM,0.986 µM,> 5 µM,0.011 µM,–,–
TE-8 (Esophageal Squamous Cell Carcinoma),> 10 µM,> 0.3 µM,0.362 µM,> 1 µM,0.0243 µM,–,> 10 µM,> 1 µM,> 10 µM,> 10 µM,0.633 µM,–,–,> 1 µM,> 1 µM,5.14 µM,> 10 µM,–,> 10 µM,0.169 µM,> 0.001 µM,> 1 µM,> 1 µM,> 10 µM,> 1 µM,2.65 µM,4.15 µM,> 20 µM,> 10 µM,> 0.3 µM,> 10 µM,> 10 µM,> 10 µM,> 10 µM,> 10 µM,3.84 µM,0.109 µM,> 1 µM,0.503 µM
VAL (B-Cell Non-Hodgkin's Lymphoma),8.52 µM,> 0.3 µM,0.0919 µM,0.0618 µM,0.00612 µM,> 3 µM,> 10 µM,0.141 µM,> 10 µM,> 10 µM,> 1 µM,0.416 µM,–,0.0365 µM,0.028 µM,0.0606 µM,4.62 µM,–,8.57 µM,0.00177 µM,> 0.001 µM,0.446 µM,> 1 µM,2.66 µM,0.0315 µM,2.28 µM,1.03 µM,> 20 µM,> 10 µM,0.00894 µM,5.13 µM,2.45 µM,1.87 µM,0.261 µM,1.47 µM,> 5 µM,0.0573 µM,–,–
